# According to patent US9951082B2, “Crystal of 6,7-unsaturated-7-carbamoyl morphinan derivative and method for producing the same” (Shionogi & Co., Ltd., priority 2010, dated 2018):
# Where a name gives a salt, the structure may show the parent alone.
# Assays:
# [1] = Solid stability test of crystal (storage, content by HPLC, appearance); assay type: physicochemical; set-up: key to Change of Appearance: when there was no change in appearance, an evaluation was (−); when there was a little change observed, it was (±); details: for Survival Rate: vs standard stored at −40° C.; for Change in the appearance / Solid stability, decrease in content: all storage conditions, two or four weeks
# Procedure: About 10 mg of crystal was correctly weighed in the 2-mL glass container with a stopper made of polyethylene.
# After closing the glass container, it was rolled with parafilm, and stored for two or four weeks at 40° C. or 60° C. The sample stored at 40° C. is called 40° C. with airtight stopper, and the sample saved at 60 C. is called 60° C. with airtight stopper.
# Also samples were reserved with the glass container opened at 40° C., relative humidity 89%, or 60° C., for two weeks or four weeks. The sample stored at 40° C. and relative humidity 89% is called 40° C. R.H.89%, and the sample stored at 60° C. is called 60° C. Opened.
# Using samples with airtight stopper stored at −40° C. as a standard, the content was measured with the absolute calibration method by the HPLC method under the following conditions:
# In addition, when there was no change in appearance, an evaluation was (−), and when there was a little change observed, it was (±).
# Column: CAPCELL PAK C18 AQ (3 micrometer 3.0×150 mm)
# Column temperature: 50° C.
# UV detection wavelength: 231 nm
# [A] A mixed solution containing ammonium formate (10 mmol/L) and magnesium chloride (10 mmol/L)
# [2] = Confirmatory test for hygroscopicity of crystal (automated water vapor sorption, DVS); assay type: physicochemical
# Procedure: After completion of the drying, relative humidity was continuously changed at intervals of 5% in a range from 0% to 95% and the amount of water vapor adsorption and desorption of the sample was measured with automated water vapor sorption apparatus: DVS Advantage (Surface Measurement Systems).
# [3] = 40° C. R.H. 89%, opened, 2 weeks
# [4] = 40° C. R.H. 89%, opened, 4 weeks
# [5] = 40° C. airtight stopper, 4 weeks
# [6] = 60° C. airtight stopper, 2 weeks
# [7] = 60° C. airtight stopper, 4 weeks
SMILES,"Change of Appearance [1, 3]","Survival Rate [1, 3] [%]","Change of Appearance [1, 4]","Survival Rate [1, 4] [%]","Change of Appearance [1, 5]","Survival Rate [1, 5] [%]","Change of Appearance ([1]; 60° C. Opened, 2 weeks)","Survival Rate ([1]; 60° C. Opened, 2 weeks) [%]","Change of Appearance ([1]; 60° C. Opened, 4 weeks)","Survival Rate ([1]; 60° C. Opened, 4 weeks) [%]","Change of Appearance [1, 6]","Survival Rate [1, 6] [%]","Change of Appearance [1, 7]","Survival Rate [1, 7] [%]",Change in the appearance [1],"Solid stability, decrease in content [1]",Hygroscopicity (in words) ([2]; 0% to 95% relative humidity at 25° C.),Amount of the maximum moisture absorption ([2]; range of 0% to 95% of relative humidity at 25° C.)
CC(C)(NC(=O)C1=C(O)[C@@H]2Oc3c(O)ccc4c3[C@@]23CCN(CC2CC2)[C@H](C4)[C@]3(O)C1)c1nc(-c2ccccc2)no1 [p-toluenesulfonic acid salt (non-solvate)],−,99.3,−,100.5,−,98.0,−,100.3,−,98.8,−,99.9,−,99.6,no change in the appearance,stable,hygroscopicity was little observed,less than 1.2%
CC(C)(NC(=O)C1=C(O)[C@@H]2Oc3c(O)ccc4c3[C@@]23CCN(CC2CC2)[C@H](C4)[C@]3(O)C1)c1nc(-c2ccccc2)no1 [p-toluenesulfonic acid salt hydrate (form I)],−,101.2,±,98.4,,,−,100.5,±,98.5,−,100.8,±,99.2,no change in the appearance,stable,,
CC(C)(NC(=O)C1=C(O)[C@@H]2Oc3c(O)ccc4c3[C@@]23CCN(CC2CC2)[C@H](C4)[C@]3(O)C1)c1nc(-c2ccccc2)no1 [p-toluenesulfonic acid salt hydrate (form II)],−,100.9,±,100.1,,,−,100.7,±,100.4,−,102.0,±,100.6,no change in the appearance,stable,,
